According to patent US20250090562A1, “METHODS, COMPOSITIONS AND USES RELATED TO THE TREATMENT AND PREVENTION OF LEIGH’S SYNDROME” (Stealth BioTherapeutics Inc., priority 2023, published 2025):
Entries after “also recorded” stand apart in the source; their conditions may differ. Read-outs that look alike come from different tables or passages of the source.

What was measured:
[1] = system: Leigh fibroblasts (GM03672); experiment: Mitochondrial membrane potential (TMRM flow cytometry) in RSL3-treated Leigh fibroblasts; assay type: cell-based, human; settings: 1 μM RSL3 with 1 μM compound, 4 h
Protocol: Leigh fibroblasts (GM03672) were seeded in a 24-well, tissue culture-treated plate in complete MEM (MEM+15% FBS+1% penicillin/streptomycin) at a density of 1×10^5 cells per 500 μL and incubated overnight at 37° C. at 5% CO2. Cells were treated for 4 hours at 37° C. with either 1 μM RSL3, 1 μM RSL3 with 1 μM Compound 3 or media for untreated cells. Following the incubation, supernatant was removed and cells were treated with 0.25% trypsin for 5 min at 37° C. Trypsin was neutralized with an equal part MEM. Cells were dislodged with gentle pipetting and pelleted at 300×g for 5 minutes. Pellets were resuspended in 500 μL Fluobrite DMEM and cells were transferred to a 96-well, v-bottom plate. Cells were stained with 20 nM MitoTracker Green and 100 nM tetramethylrhodamine methyl ester (TMRM) Samples were incubated for 25 minutes at 37° C. Each well was mixed immediately prior to analysis to resuspend settled cells. Fluorescence intensity was measured on the BD Accuri C6 Plus Flow Cytometer. A minimum of 10,000 events per sample was collected. Data analysis was performed using FloJo vs. 10. Gating was performed by establishing an initial forward scatter vs. side scatter gate. MitoTracker Green positive, TMRM positive cells were identified through subsequent gating. Median fluorescence intensity (MFI) of TMRM fluorescence was determined. Using GraphPad Prism 10, statistical significance between groups was determined by One-way ANOVA. A p-value of less than 0.05 was considered significant. Results are presented graphically in FIG. 20.

[2] = Pharmacokinetics of Compound 3 and Compound 4, five daily subcutaneous doses, mice (plasma, heart, brain); assay type: in vivo, C57Bl/6 mice; settings: mouse; for tolerability: SC once per day for 5 days, up to 60 mg/kg
Protocol: (§1) • Animals: Male/C57Bl/6 mice/-18-25 grams were received from an approved vendor. • Fasting was not required for this study. • Body weights were recorded prior to dose administration. The volume of each dose delivered (mL/kg) was based on each individual animal's body weight. • This was a multiple dose terminal study dosed once per day over 5 days. Mice were taken down following their 5th and final dose. • Doses were administered in accordance with test facility standard operating procedures. […] Any abnormalities were recorded. • Pre-formulated Compound 3 and Compound 4 were provided by Study sponsor ready to be dosed for each day in accordance with the Study Design set forth in Table 1, below.
(§2) • Terminal blood samples were collected via cardiac puncture following inhalation of anesthesia in accordance with test facility standard operating procedures. • Blood samples were collected into tubes with appropriate anticoagulant. The tubes were stored on wet ice until processed to plasma by centrifugation (3500 rpm at 5° C. for 10 minutes) within 20 minutes of collection. Sample aliquots of 100 μL were transferred into individual uniquely labeled matrix tubes and stored at nominal −80° C. until transferred to analytical chemistry for analysis by LC/MS/MS. • Immediately following each terminal blood collection for all groups, animals were sacrificed and perfused with cold PBS. The following tissues were collected: heart and brain in accordance with Table 2. • Plasma and tissue samples were processed for analysis by LC/MS/MS to determine the amounts/concentrations reported in the FIGS. 18-21.

[3] = Pharmacokinetics of Compound 3, repeated (5 days) subcutaneous dose, rats; assay type: in vivo, Sprague Dawley rats
Protocol: as §1, with “Rat/Sprague Dawley/Male/Naive 225-250” for “Male/C57Bl/6 mice/-18-25”, “Rats” for “Mice”, “Compounds” for “Compound”, “was” for “and Compound 4 were”, “3,” for “1,”
as §2, with “inhalation” for “inhalation of”, “Tubes” for “The tubes”, “analysis.” for “analysis by LC/MS/MS.”, “The following tissues were collected: heart and brain in accordance with Table 2. • Plasma and tissue samples were processed for analysis by LC/MS/MS to determine the amounts/concentrations reported in the FIGS. 18-21.” left out

[4] = system: 15-lipoxygenase (15-LO); experiment: 15(S)-HETE ELISA following erastin treatment, healthy fibroblasts; assay type: cell-based, human; settings: erastin + FAC + AA, 1 μM compound, 24 h
Protocol: (§3) Samples for the 15(S)-HETE ELISA were generated by the Erastin Assay described above. Healthy or Leigh fibroblasts were resuspended in assay medium, seeded at 200,000 cells/well in a clear, tissue culture-treated, 24-well plate, and incubated at 37° C. for 24 hours. Supernatant was aspirated from each well.
(§4) Ferroptosis was induced using erastin at 2 μM concentration. 15(S)-HETE, which is a metabolite of arachidonic acid and generated by activity of 15-LO, was measured using a commercially available ELISA kit. Data were normalized to the “No treatment” group, which represented fibroblasts that were not injured with erastin.

[5] = assay type: in vivo; settings: rat, single dose 1 mg/kg IV, 10 mg/kg SC or 10 mg/kg PO
Protocol: • Animals: Rat/Sprague Dawley/Male/Naive 225-250 grams were received from an approved vendor. • Animals were fasted overnight prior to dose administration. Food was returned following the 2 hour sample collection. • Body weights were recorded prior to dose administration. The volume of each dose delivered (ml/kg) was based on each individual animal's body weight. • This was a single dose, serial blood collection study with tissues collected for possible future analysis. • Doses were administered in accordance with test facility standard operating procedures. […].
• Blood samples were collected via jugular vein catheter (JVC) and transferred to tubes with appropriate anticoagulant. The tubes were stored on wet ice until processed to plasma by centrifugation (3500 rpm at 5° C. for 10 minutes) within 20 minutes of collection. Sample aliquots of 100 μL were transferred into individual uniquely labeled matrix tubes containing 10 μL of 5% (v/v) formic acid aqueous solution and stored at nominal −80° C. until analyzed by LC/MS/MS. • Immediately following final serial blood collection (24 hours, JVC), animals were sacrificed and perfused with cold PBS. […]

[6] = system: 15-lipoxygenase (15-LO); experiment: 15(S)-HETE ELISA following erastin treatment, Leigh fibroblasts; assay type: cell-based, human; settings: erastin + FAC + AA, 1 μM compound, 24 h
Protocol: as §3, §4

[7] = SC, up to 2 hours post dose after 5 days

| Compound | mitochondrial membrane potential (TMRM MFI), protection [1] | exposure (Cmax and AUC) heart compared with brain ([2]; SC) | heart exposure based on AUC, comparison between compounds ([2]; SC) | uptake into plasma after subcutaneous injection ([2]; SC) | tolerability [2] | concentration in brain tissue [2, 7] | concentration in heart tissue [2, 7] | plasma uptake and clearance across species (mouse versus rat) ([3]; 20 mg/kg SC in mouse versus 10 mg/kg SC in rat (60 mg/m^2)) | tolerability ([3]; rat, 10 mg/kg SC once per day for 5 days) | relative 15-LO inhibition (comparison between test articles) [4] | tolerability [5] | delivery by mode of administration ([5]; preliminary) | relative 15-LO inhibition (comparison between test articles) [6] | Tmax, Compound 4 compared with Compound 3 ([2]; in vivo, sc) | brain exposure based on AUC, comparison between compounds ([2]; in vivo, sc) | exposure (Cmax and AUC) heart compared with brain ([2]; in vivo, sc) | half-life, Compound 4 compared with Compound 3 ([2]; in vivo, sc) | uptake into plasma after subcutaneous injection ([2]; in vivo, sc) |
| --- | --- | --- | --- | --- | --- | --- | --- | --- | --- | --- | --- | --- | --- | --- | --- | --- | --- | --- |
| CC1=C(C)C(=O)C(CC[C@@](C)(O)COCCC[Si](C)(C)C)=C(C)C1=O [Compound 3] | protective of the Leigh fibroblasts from the loss of mitochondrial membrane potential | higher in heart than in brain | slightly higher that Compound 4 | migrate into the blood stream | well tolerated | up to microgram quantities of drug per gram of brain tissue | up to microgram quantities of drug per gram of heart tissue | roughly equivalent; also recorded: scales well by allometry | well tolerated | – | – | – | – | – | – | – | – | – |
| CC1=C(C)C(=O)C(CC[C@@](C)(O)CC/C=C(\C)CCC=C(F)F)=C(C)C1=O [Compound 2] | – | – | – | – | – | – | – | – | – | slightly less effective | well tolerated | effectively administered | slightly less effective | – | – | – | – | – |
| CC1=C(C)C(=O)C(CC[C@](C)(O)CCCCCCCCC(F)(F)F)=C(C)C1=O [Compound 4] | protective of the Leigh fibroblasts from the loss of mitochondrial membrane potential | – | – | – | well tolerated | – | – | – | – | – | – | – | – | typically later | somewhat higher than Compound 3 | no difference in the two tissue exposures | tended to be longer | migrate into the blood stream |
